Data from patent publication US6121277A, “Camptothecin-skeleton compounds isolated from Mappia foetida and the use thereof as syntones for novel medicaments as well as therapeutical agents” (Indena S.p.A., priority 1996, dated 2000).
pIC50: −log10 of the molar value. Where two headings read alike, the source gives them in different places.

Key:
HCT116 = assay: Cytotoxic activity against colon carcinoma line HCT116; assay type: cell-based; settings: Homo sapiens
Description: (§1) Compounds 1 have cytotoxic activity against tumor cell lines. For example, Table 1 reports the cytotoxic activity against a colon carcinoma line (HCT116) and against the same line resistant to the most common chemotherapeutics (HCT116/VM46).

HCT116/VM46 = assay: Cytotoxic activity against the same line resistant to the most common chemotherapeutics (HCT116/VM46); assay type: cell-based; settings: Homo sapiens
Description: as §1

CCC(O)(C(=O)O)c1cc2n(c(=O)c1COC(C)=O)Cc1cc3ccccc3nc1-2 (stereo not shown) [17-Acetyl-camptothecinic acid, 17-acetyl-camptothecinic acid]
pIC50 (HCT116; HCT-116, colon carcinoma line HCT116, read-out: IC50 Line HCT116): 8.09 | pIC50 (HCT116/VM46; HCT-116/VM46, HCT116/VM46, resistant to the most common chemotherapeutics, read-out: IC50 Line HCT116/VM46): 7.60

CC[C@@]1(O)C(=O)OCc2c1cc1n(c2=O)Cc2cc3ccccc3nc2-1 [Camptothecin, camptothecin]
pIC50 (HCT116; HCT-116, read-out: IC50 Line HCT116): 7.98 | pIC50 (HCT116/VM46; HCT-116/VM46, read-out: IC50 Line HCT116/VM46): 7.01
